Source: patent publication US20080003684A1, “DIAGNOSTIC METHOD FOR MYOPATHY” (priority 2006, published 2008)

Assays:
[1] = test system: human skeletal muscle; assay: Whole genome microarray analysis in muscle biopsies, single-gene analysis; settings: high dose statin treatment, criteria 1.5-fold change and p-value <0.05
[2] = test system: COL3A1; assay: RealTime Quantitative TaqMan PCR of muscle RNA; format: in vivo, human; settings: n=5, p=0.026
Description: (§1) Based on a hierarchical cluster analysis (described in Example 1) 20 genes were selected for further RT-PCR control in order to identify a gene expression based fingerprint for statin effect on human skeletal muscle.
(§2) The microarray expression results recorded in the simvastatin group (n=5, for one case there was not enough muscle RNA for PCR) were verified by RealTime Quantitative TaqMan PCR. Previously purified cRNA was used as starting material for cDNA synthesis. A 1000 ng-18 μl aliquote of cRNA was mixed with 1 μl Promega Random Primer (C1181, Promega U.S., Madison, Wis., USA) and incubated in +70° C. for 10 min. The following reagents were added leading to 25 μl total reaction volume: 1 μl of 10 μM dNTP blend (F09892, Applied Biosystems, Foster City, Calif., USA), 1 μl of Promega M-MLV Reverse Transcriptase 200 U/μl (M3682) and 4 μl of M-MLV RT 5× reaction buffer. Finally the incubations were performed in the following order: 10 min in RT, 50 min in 45° C., and, 10 min in 70° C. 10 μl volume was used for PCR reaction, consisting of 2 μl aliquote of 1:10 diluted cDNA sample, and, Abgene ABsolute 2×QPCR ROX mix (AB-1139, Abgene, Epsom, UK). The primer concentrations were 300 nM, probe concentrations for Universal Probe Library (Exiqon, Vedbaek, Denmark) probes 100 nM and for ordinary long probes 200 nM. Finally the PCR reactions were performed in rtPCR system (ABI Prism 7700 Sequence Detection System, Applied Biosystems) having the following PCR procedure: 95° C. for 15 min, and 40 cycles of 95° C. for 15 s and 60° C. for 1 min.

[3] = test system: MYL5; assay: RealTime Quantitative TaqMan PCR of muscle RNA; format: in vivo, human; settings: n=5, p=0.021
Description: as §1, §2

[4] = test system: CCL5; assay: RealTime Quantitative TaqMan PCR of muscle RNA; format: in vivo, human; settings: n=5, p=0.011
Description: as §1, §2

[5] = test system: ALOX5AP; assay: RealTime Quantitative TaqMan PCR of muscle RNA; format: in vivo, human; settings: n=5, p=0.041
Description: as §1, §2

[6] = test system: MYBPH; assay: RealTime Quantitative TaqMan PCR of muscle RNA; format: in vivo, human; settings: n=5, p=0.027
Description: as §1, §2

[7] = test system: human skeletal muscle; assay: Gene set enrichment analysis (GSEA) of muscle microarray data; settings: high dose statin treatment, FDR<0.25

SMILES	number of genes up-regulated [1]	number of genes whose expression changed significantly during the intervention [1]	COL3A1 expression change by RT-PCR [2]	MYL5 expression change by RT-PCR [3]	CCL5 expression change by RT-PCR [4]	ALOX5AP expression change by RT-PCR [5]	MYBPH expression change by RT-PCR [6]	number of pathways up-regulated / affected in GSEA [7]
CCC(C)(C)C(=O)O[C@H]1C[C@@H](C)C=C2C=C[C@H](C)[C@H](CC[C@@H]3C[C@@H](O)CC(=O)O3)[C@H]21 [simvastatin]	85 genes	111 genes	+27.1 fold	+8.0 fold	+11.9 fold	+3.6 fold	+49.0 fold	143 pathways
CC(C)c1c(C(=O)Nc2ccccc2)c(-c2ccccc2)c(-c2ccc(F)cc2)n1CC[C@@H](O)C[C@@H](O)CC(=O)O [atorvastatin]		five						no pathways appeared to be affected significantly
